Assay results reported in patent US20250295795A1, “PEPTIDE” (priority 2021, published 2025).
Entries after “also recorded” stand apart in the source; their conditions may differ. No end group written: not given here.

Assays:
[1] = test system: HeLa cells; experiment: Membrane integrity / porosity: propidium iodide uptake after trimer treatment; format: cell-based, human; conditions: 1 μM trimer; 40 μM PI added 20 min after trimer
Procedure: To assess membrane integrity, 40 μM propidium iodide (PI; a cell impermeable dye), was added to Hela cells 20 min after the addition of the peptide trimer.

[2] = test system: CHO cells; experiment: Live cell confocal microscopy: cellular uptake and intracellular distribution of Tat conjugates in CHO cells; format: cell-based, Chinese hamster; conditions: 60 min, post-wash
Procedure: (§1) The cellular uptake and intracellular distribution of Tat-trimers and monomeric controls was investigated by performing live cell confocal microscopy of HeLa (human, cervical cancer) and CHO (Chinese hamster, epithelial) cells incubated with Tat conjugates (1 μM) in serum-free DMEM (60 min). Following washing, images were acquired using a Zeiss 780 confocal microscope fitted with an incubation chamber (FIG. 2). In accordance with observations that free Tat in the cytosol readily enters the nucleus and strongly binds to nucleoli,^29 homogenous staining of cytoplasm and nucleoli were considered as indicative of cells having accumulated free conjugate, not confined to endosomes, for quantification purposes. […] The uptake and intracellular distribution of tri-Tat A is similar in live Hela and CHO cells (FIG. 2b,d,e).
(§2) HeLa and CHO cells were cultured in DMEM supplemented with 10% FBS and penicillin/streptomycin. For post-wash experiments, Tat conjugate was added to the cells in serum free medium, cells incubated at 37° C. in an atmosphere of 5% CO2, culture medium removed at the desired time point, cells washed and transferred to the microscope for imaging. For time course or pre-wash experiments, cells were transferred to the microscope (incubation chamber at 37° C., 5% CO2) and Tat conjugate added directly to cell medium and cells imaged at desired time points. Co-delivery experiments were conducted by adding peptide trimer immediately followed by cargo into serum free medium. Samples were visualised using a Zeiss LSM 780 inverted confocal microscope fitted with a XLmultiS1 incubation chamber and Plan-Apochromat 63×/1.40 Oil DIC M27 objective. Images were analysed using ImageJ software. Digital adjustments and image processing are consistent throughout the manuscript, unless otherwise stated in the figure legend. Statistical analysis was carried out using GraphPad Prism 7 software and all data used for statistical analysis consists of measurements from distinct cells. Where applicable a parametric, unpaired, two-tailed t-test was used for statistical testing.

[3] = test system: HeLa cells; experiment: Time course of uptake in Hela cells (continuous live cell confocal microscopy, ROI profile analysis); format: cell-based, human; conditions: 1 μM
Procedure: To better understand the mechanism by which tri-Tat A and tri-cTat B enter the cytosol and the nucleus, we investigated the uptake kinetics of the conjugates during the first 15 min after their addition to Hela cells using confocal live cell microscopy. Tri-Tat A (FIG. 3a) or tri-cTat B (FIG. 3b) (1 μM) were added to the cells and images acquired from 1 min to 15 min at 60 sec intervals. The two trimers show distinct uptake patters into Hela cells; to better understand the difference in uptake kinetics, we drew cross sectional profile plots through representative cells treated with tri-Tat A (FIG. 3c) and tri-cTat B (FIG. 3d). […] To investigate whether findings in individual cells also apply to larger populations, we extended the plot profile analysis by designating regions of interest (ROI) corresponding to plasma membrane, cytosol (excluding endosomes), nucleus, and nucleoli along the cross section, using information from brightfield images.^30 Average fluorescence intensities for each ROI, at each time point, in six cells per treatment group were calculated and plotted in FIGS. 3e-3h.
as §2

[4] = MTT assay of metabolic activity (cell viability); format: cell-based; conditions: human, HeLa cells, 1 μM for 60 min
Procedure: Toxicity is a concern with potent intracellular delivery agents. We used an MTT assay to measure the metabolic activity of Hela cells treated with 1 μM tri-Tat A or tri-cTat B for 60 min (FIG. 4d). […] Tri-Tat A is slightly more toxic, which is consistent with the observation that the trimer forms membrane pores (cells 84.4% viable, 4 h post-treatment; 80.2% viable, 3 days post-treatment). The favourable uptake mechanism and low toxicity of tri-cTat B lead us to investigate this agent for its potential to transport biomacromolecular cargos into cells.

[5] = test system: HeLa cells; experiment: Live cell confocal microscopy: cellular uptake and intracellular distribution of Tat conjugates in HeLa cells; format: cell-based, human; conditions: HeLa cells, 60 min, post-wash
Procedure: as §1, with “[…]).” for “epithelial) cells incubated with Tat conjugates (1 μM) in serum-free DMEM (60 min).”
Following washing, images were acquired using a Zeiss 780 confocal microscope fitted with an incubation chamber. In accordance with observations that free Tat in the cytosol readily enters the nucleus and strongly binds to nucleoli,^29 homogenous staining of cytoplasm and nucleoli were considered as indicative of cells having accumulated free conjugate, not confined to endosomes, for quantification purposes. The results were compared to tri-Tat A (8) and tri-cTat B (17).
as §2

[6] = test system: HeLa cells; experiment: Co-delivery of antibodies, antibody fragments and RFP into live Hela cells; format: cell-based, human; conditions: 1 μM peptide
Source text: Access to the cytosol by mechanisms that are independent of transmembrane pore formation constitutes a preferred method of co-delivery due to reduced toxicity to the cell. […] Successful delivery of Fab is indicated by homogenous distribution of AF647 signal in the cytosol and nucleus and is only observed in cells which have been transduced with tri-cTat B (FIG. 13). Time course of Fab uptake by tri-cTat B (FIG. 5c) follows a similar pattern as tri-cTat B alone (FIG. 3b, d). Tri-cTat B and Fab form large vesicle-like bodies that appear to release their contents into the cytosol of the cell; unambiguous cytosolic staining by Fab is observed from 23 min. Interaction between peptide trimer and biomacromolecule, mediated by charge-charge interactions is essential for the accumulation of both in endosomes and subsequent release and delivery of cargo into cells. Delivery of relatively β-sheet rich, neutrally charged recombinant RFP was unsuccessful (FIG. 16) due to a lack of association between tri-cTat B and cargo (FIG. 17). On the other hand, interaction diminishes the efficacy of the peptide trimer due to charge masking, emphasising the need to maintain an appropriate peptide to cargo ratio for a given macromolecule. Experiments to explore the efficacy of tri-cTat B in the presence of serum supplemented medium underline this principle; while tri-cTat B continues to function in the presence of serum, the number of transduced cells diminishes (42% (serum) vs. 61% (serum free)), but can be restored by increasing tri-cTat B concentration to 2 μM (79% (serum); FIG. 15). […] This is likely due to the larger size of antibodies and also to the observation that antibodies have a greater tendency to aggregate in the presence of tri-cTat B compared to Fab fragments. […] Finally, we investigated whether it is possible to deliver functional antibodies and antibody fragments into the cytosol and nuclei of cells. β-actin was chosen as a proof-of-principle protein because of its abundance in the cell and formation of distinctive subcellular filaments. To clearly identify actin filaments, Hela cells were transfected with red fluorescent protein fused to actin (actin-RFP) before being incubated with β-actin antibody (mouse IgG2b) or β-actin Fab fragment (mouse) conjugated to AF647 plus tri-cTat B for 30 min. After washing, cells were left for 60 min to allow IgG/Fab to bind to actin filaments. […] To enable objective quantification of co-localization between β-actin filaments and IgG/Fab fragment (white arrows), a co-localization threshold algorithm was used in selected regions of interest (ROI). Pearson's and Manders' coefficients were obtained under Costes' automatic threshold^32 and the co-localized pixels are shown as a mask of yellow pixels of constant intensity (co-localization panels). The significance of the co-localization parameters (Pearson's and Manders' coefficients) was evaluated using the confined displacement algorithm (CDA).
as §2, with “Statistical analysis was carried out using GraphPad Prism 7 software and all data used for statistical analysis consists of measurements from distinct cells. Where applicable a parametric, unpaired, two-tailed t-test was used for statistical testing.” left out

Molecule	propidium iodide (PI) uptake / pore formation [1]	cellular uptake and intracellular distribution ([2]; 1 μM, serum-free DMEM)	time after which cytosolic signal increases rapidly [3] [min]	cytosolic signal relative to tri-cTat B (factor) ([3]; at 15 min, p<0.05)	association with plasma membrane (profile plots) ([3]; representative cells)	association with the plasma membrane relative to tri-cTat B ([3]; t=1 to 15 min, p<0.05)	viability at 4 h, 1 µM ([4]; 4 h post-treatment) [%]	viability at 72 h, 1 µM ([4]; 3 days post-treatment) [%]	cellular uptake and intracellular distribution ([5]; 1 μM, serum-free DMEM)	cellular uptake and intracellular distribution ([2]; 10 μM)	cellular uptake and intracellular distribution ([5]; 10 μM)	cellular uptake of Fab in the presence of the peptide ([6]; Fab-AF647, 30 min)	cellular uptake of IgG in the presence of the peptide ([6]; IgG-AF647, 45 min)
N=C(N)NCCC[C@H](NC(=O)[C@H](CCCNC(=N)N)NC(=O)[C@H](CCCNC(=N)N)NC(=O)[C@H](CCC(N)=O)NC(=O)[C@H](CCCNC(=N)N)NC(=O)[C@H](CCCNC(=N)N)NC(=O)[C@H](CCCCN)NC(=O)[C@H](CCCCN)NC(=O)[C@H](CCCNC(=N)N)NC(=O)CCCc1cn(CC(Cn2cc(CCCC(=O)N[C@@H](CCCNC(=N)N)C(=O)N[C@@H](CCCCN)C(=O)N[C@@H](CCCCN)C(=O)N[C@@H](CCCNC(=N)N)C(=O)N[C@@H](CCCNC(=N)N)C(=O)N[C@@H](CCC(N)=O)C(=O)N[C@@H](CCCNC(=N)N)C(=O)N[C@@H](CCCNC(=N)N)C(=O)N[C@@H](CCCNC(=N)N)C(N)=O)nn2)(Cn2cc(CCCC(=O)N[C@@H](CCCNC(=N)N)C(=O)N[C@@H](CCCCN)C(=O)N[C@@H](CCCCN)C(=O)N[C@@H](CCCNC(=N)N)C(=O)N[C@@H](CCCNC(=N)N)C(=O)N[C@@H](CCC(N)=O)C(=O)N[C@@H](CCCNC(=N)N)C(=O)N[C@@H](CCCNC(=N)N)C(=O)N[C@@H](CCCNC(=N)N)C(N)=O)nn2)Cn2cc(CNC(=O)c3ccc4c(c3)C(=O)OC43c4ccc(N)c(S(=O)(=O)O)c4Oc4c3ccc(N)c4S(=O)(=O)O)nn2)nn1)C(N)=O (some centres unmarked) [tri-Tat A]	significantly higher; also recorded: co-stain with PI	homogenous cytosolic uptake and nucleolar staining; also recorded: taken up into the cytosol and nucleoli	~12	2	initial strong association	approximately three	84.4	80.2	homogenous cytosolic uptake and nucleolar staining; also recorded: taken up into the cytosol and nucleoli	–	–	–	–
tri-Tat B: AF488-labelled trimer of linear Tat (49-57) peptide on alkyne functionalized scaffold B (RKKRRQRRR; also: trimer on alkyne functionalized scaffold B, AF488 label, place not given here; UniProt P04608 49-57, looked up, fragment)	–	no evidence of cytosolic uptake or nucleolar staining; also recorded: only taken up into endosomes	–	–	–	–	–	–	no evidence of cytosolic uptake or nucleolar staining; also recorded: only taken up into endosomes	–	–	–	–
mono-Tat: monomeric control: linear Tat (49-57) peptide labelled with AF488 (RKKRRQRRR; also: AF488 label, place not given here; UniProt P04608 49-57, looked up, fragment)	–	not taken up	–	–	–	–	–	–	not taken up	no cytosolic uptake or nucleolar staining; also recorded: taken up only into endosomes	no cytosolic uptake or nucleolar staining; also recorded: taken up only into endosomes	no cellular uptake	no cellular uptake
